The results in this text go back to patent publication US20050043369A1, “Bactericidal antimicrobial methods and compositions for use in treating gram positive infections” (Protez Pharmaceuticals Inc., priority 2000, published 2005).

Read-outs that look alike come from different tables or passages of the source.

The MBC is the lowest tested concentration that kills the bacteria rather than only halting them.

What all share (type): cell-based, Staphylococcus aureus
For experiment [1], the system named is S. aureus SA 29213. Briefly: 55Fe transport assay (intracellular iron accumulation). The conditions noted are these: compound at 2 μg/ml; S. aureus SA 29213. The procedure: Next, investigated was whether INF 401 affects intracellular iron accumulation. An ^55Fe transport assay (modified from Sebulsky, 2000) was used to examine the ability of INF 401 to transport iron inside the cell. Briefly, exponentially growing cells were diluted to OD600 0.1 in LB, incubated with ^55FeCl3 for 30 min at 37° C., washed and counted in scintillation fluid using the tritium channel of a scintillation system. […] However, the presence of INF 401 in either the absence or presence of antibiotic led to a dramatic increase in iron accumulation (209,215 and 231,621 DPM, respectively).
(§1) Activity of the compound is depicted as the minimal concentration required to kill 99.9% of S. aureus in the presence of 4 μg/ml erythromycin.

Experiment [2] concerns S. aureus strain SA1199. The experiment is described as follows: Screening and titration of potentiators with erythromycin (4 μg/ml), viability read by transfer to fresh medium. The conditions noted are these: in the presence of 4 μg/ml erythromycin. The procedure: In an exemplary screening assay, in order to identify a candidate acyl hydrazide, oxy amide or 8-hydroxy quinoline composition as an antibacterial agent potentiator, the S. aureus strain SA1199 may be used. The procedure for screening is as follows: logarithmically growing S. aureus SA1199 are inoculated to a final OD600 of 0.002 into 150 μl of LB medium containing a bacteriostatic concentration of an antimicrobial agent for that strain, for example, erythromycin (4 μg/ml) at four times the Minimal Inhibitory
Concentration (MIC). […] In preliminary studies the inventors determined that under these conditions up to 2000 viable cells were transferred after incubation with erythromycin. As confirmed by broth microdilution, at least a 1000-fold reduction in viability was required to see no visible growth after 20 hours. Acyl hydrazide, oxy amide or 8-hydroxy quinoline antibiotic potentiators may be identified as those compounds that increase the bactericidal effect of the erythromycin.
The macrolide erythromycin was chosen in the initial screen for two reasons: first, its mechanism of inhibition of protein synthesis is well characterized and second, as a macrolide, erythromycin is representative of an expanding class of agents which includes the second most prescribed antibiotic, azithromycin.
In preliminary studies the inventors determined that under these conditions up to 2000 viable cells were transferred after incubation with erythromycin. As confirmed by broth microdilution, at least a 1000-fold reduction in viability was required to see no visible growth after 20 h.
Next the activity of the hit compounds was compared by titration of the compounds in the presence of erythromycin at 4 μg/ml as described above.
as §1

Experiment [3] concerns S. aureus SA1199. The experiment is described as follows: Checkerboard two-fold broth microdilution, MIC and MBC. The conditions noted are these: for MBC: read-out: MBC^a = MBC in the absence of INF 401; for MBC^b = MBC in the presence of 5 μg/ml of INF 401: plus 5 μg/ml INF 401, unit not given. The procedure:
Checkerboard titration was performed with INF 401 and erythromycin to quantitate the effects of the combination on Staphylococcal growth using two-fold serial broth microdilution. After overnight incubation, cells were transferred to fresh medium, as described above, to determine those combinations that were bactericidal to S. aureus. […] Although not determined according to NCCLS recommended procedures ([…]), the inventors considered this the Minimal Bactericidal Concentration (MBC).
The inventors next evaluated whether INF 401 was bactericidal in combination with other protein synthesis inhibitors which are bacteriostatic to S. aureus. Checkerboard studies were performed with two-fold dilutions of each antibiotic in combination with INF 401 using the assay described above in Example 2. After overnight incubation the MIC of each antibiotic was determined by visualization of bacterial growth. […] The MBC of each antibiotic was determined as described in Example 2 in the absence or presence of INF 401.
A general note: Broth dilution looks for growth in wells or tubes with falling amounts of substance.

For experiment [4], the system named is S. aureus (SA1199). The experiment is described as follows: Time kill studies (CFU counts). The note with it: antibiotic 1×MIC + 5 μg/ml INF 401. How it is done:
FIG. 5A, FIG. 5B and FIG. 5C. […]
The initial inoculum number was determined by plating an appropriate dilution on LB agar plates and determining the number of colony forming units (CFUs). At different time points an aliquot was withdrawn from each tube and cell viability was determined by plating an appropriate dilution and counting CFUs after overnight incubation.

In experiment [5] the test system is S. aureus SA1199. Briefly: Checkerboard two-fold broth microdilution, MIC and MBC. The conditions noted are these: Table 2, plus 10 μg/ml INF 402, unit not given.
Experiment [6] concerns S. aureus ATCC 29213. The experiment is described as follows: MBEC assay system, checkerboard: planktonic MIC and biofilm MBEC. The note with it: INF 401 at 0.3 μg/ml where in label. The procedure: These studies were performed via the method of Dr. Howard Ceri (University of Calgary), who recently developed a method for the routine determination of the antibiotic susceptibility of biofilms. To date, the inventors have tested the effect of the combination of INF 401 on the ability of either clindamycin or rifampin to eradicate S. aureus biofilms in vitro. S. aureus ATCC 29213 was selected for the study as previous studies of this isolate as a biofilm had been conducted and the isolate served as a quality assurance organism for NCCLS standardization of antibiotic testing. Biofilms were formed as previously described for this organism (Ceri et al., 1999) using the MBEC™ assay system. Checkerboard studies were performed with each antibiotic versus INF 401.

Experiment [7] deals with S. aureus strain ATTC 29213. The experiment is described as follows: Characterization of killing by INF 401 plus chloramphenicol (viability, morphology, protein, DNA, metal dependence). The note with it: reversed by exogenous Fe3+.
Protocol: Time kill study of the effect of NF 401 in combination with chloramphenicol. Exponentially growing cells (S. aureus strain 29213) were diluted to OD600 0.1 in LB supplemented with 20 μg/ml of chloramphenicol (Cm) in the presence or absence of INF 401 (2 μg/ml) and incubated with shaking at 37° C. At indicated time points cells were harvested, washed with LB and plated on LB agar plates. Number of colony forming units (CFUs) was determined after overnight incubation.
Time kill study of the effect of iron on the bactericidal activity of INF 401. S. aureus strain 29213 was grown overnight in iron-limited Staphylococcal Siderophore Detection (SSD) medium (Heinrichs, 1999) supplemented with 2 μM FeCl3, washed with SSD and diluted 1:100 into the fresh medium containing 0, 2 or 50 μm FeCl3. Exponentially growing cells were diluted to OD600 0.01 in the corresponding medium supplemented when indicated with 20 μg/ml of chloramphenicol (Cm) and 2 μg/ml of INF 401. At 0, 1, 2 and 3.5 hours cells were plated in different dilutions to the LB agar plates and number of colony forming units (CFUs) was counted next day.
[8] abbreviates: Staphylococcus aureus, Table 1, S. aureus SA1199, antibiotic alone, unit inferred.
The mark [9] stands for this setting: Staphylococcus aureus, Table 1, S. aureus SA1199, unit inferred, read-out: MIC.

In the case of `O=C(Cc1ccccc1)N/N=C/c1c(O)ccc2ccccc12`, the “^55Fe Accm.” value in experiment [1] is on record as 36,941 DPM. The “Activity (minimal concentration required to kill 99.9% of S. aureus)” value in experiment [2] is 0.15 µg/mL.

For the molecule `O=C(N/N=C/c1c(O)ccc2ccccc12)Nc1ccccc1`, the “^55Fe Accm.” value in experiment [1] is 14,400 DPM. In addition, the “Activity (minimal concentration required to kill 99.9% of S. aureus)” value in experiment [2] was 0.3 µg/mL.

With `COc1ccccc1NC(=O)N/N=C/c1c(O)ccc2ccccc12`, in experiment [1], the “^55Fe Accm.” value is 1,900 DPM. Further, the “Activity (minimal concentration required to kill 99.9% of S. aureus)” value in experiment [2] was more than 10 µg/mL.

With `Cc1cccc(CNC(=O)N/N=C/c2c(O)ccc3ccccc23)c1`, the “^55Fe Accm.” value in experiment [1] was 1,500 DPM. Also, the “Activity (minimal concentration required to kill 99.9% of S. aureus)” value in experiment [2] was more than 10 µg/mL.

For the molecule `Cc1ccc(CNC(=O)N/N=C/c2c(O)ccc3ccccc23)cc1`, in experiment [1], the “^55Fe Accm.” value is recorded as 9,100 DPM. In addition, in experiment [2], the “Activity (minimal concentration required to kill 99.9% of S. aureus)” value amounted to 1.25 µg/mL.

In the case of `[H]/N=C(\N/C(=N/[H])NCCCCCCNC(=N)NC(=N)Nc1ccc(Cl)cc1)Nc1ccc(Cl)cc1` [Chlorhexidine], in experiment [3] (setting [8]), the MBC is 4 µg/mL. In addition, the MIC in experiment [3] (setting [9]) came out at 1 µg/mL. For the same molecule, in experiment [3] (Table 1, S. aureus SA1199), the “MBC^b = MBC in the presence of 5 μg/ml of INF 401” value (“MBC^b = MBC … of INF 401” for short) turned out to be 1.

For the molecule `CCC[C@@H]1C[C@@H](C(=O)N[C@@H]([C@H]2O[C@H](SC)[C@H](O)[C@@H](O)[C@H]2O)[C@H](C)Cl)N(C)C1` [Clindamycin], the “bactericidal concentration of antibiotic alone as multiple of MIC” value in experiment [3] (S. aureus, absence of INF 401) is recorded as 4 ×MIC. Further, the minimal bactericidal concentration (MBC) in experiment [3] (setting [8]) stood at 4 µg/mL. The MIC in experiment [3] (setting [9]) was 0.25 µg/mL; in experiment [3] (Table 2, S. aureus SA1199, unit inferred), 0.25 µg/mL; in experiment [6] (Staphylococcus aureus, ATCC29213, planktonic population) it was less than 1 µg/mL. Further, in experiment [3] (Table 1, S. aureus SA1199), the “MBC^b = MBC … of INF 401” value is recorded as 0.125. In addition, the MBC^a = MBC in the absence of INF 401 in experiment [3] (Table 2, S. aureus SA1199, antibiotic alone, unit inferred) came out at 4 µg/mL. In experiment [4], the “reduction in cell viability, antibiotic in combination with INF 401” value was 3 log10. The “MBC^b = MBC in the presence of 10 μg/ml of INF 402” value in experiment [5] was found to be 2. The MBEC in experiment [6] (biofilm population) was 256 µg/mL.

Take `N[C@@H]1CON=C1O` [Cycloserine]: in experiment [3] (setting [8]), the MBC is more than 256 µg/mL. Besides, the MIC in experiment [3] (setting [9]) came out at 32 µg/mL. Also, in experiment [3] (Table 1, S. aureus SA1199), the “MBC^b = MBC … of INF 401” value came to 32.

`O=C(O)C(NCCNC(C(=O)O)c1ccccc1O)c1ccccc1O` (stereo not drawn) [EDDHA]: the “effect of iron chelator on killing by INF 401” value in experiment [7] is reported as “completely ablate killing”.
